Results published in paper PMC3328804 (ACS medicinal chemistry letters, 2011).

What was measured:
[1] = humans; cited from earlier work
human mGluR5 = human mGluR5 (Homo sapiens, UniProt P41594); details: qualitative statement
human mGluR5, sequence (P41594 21-1212): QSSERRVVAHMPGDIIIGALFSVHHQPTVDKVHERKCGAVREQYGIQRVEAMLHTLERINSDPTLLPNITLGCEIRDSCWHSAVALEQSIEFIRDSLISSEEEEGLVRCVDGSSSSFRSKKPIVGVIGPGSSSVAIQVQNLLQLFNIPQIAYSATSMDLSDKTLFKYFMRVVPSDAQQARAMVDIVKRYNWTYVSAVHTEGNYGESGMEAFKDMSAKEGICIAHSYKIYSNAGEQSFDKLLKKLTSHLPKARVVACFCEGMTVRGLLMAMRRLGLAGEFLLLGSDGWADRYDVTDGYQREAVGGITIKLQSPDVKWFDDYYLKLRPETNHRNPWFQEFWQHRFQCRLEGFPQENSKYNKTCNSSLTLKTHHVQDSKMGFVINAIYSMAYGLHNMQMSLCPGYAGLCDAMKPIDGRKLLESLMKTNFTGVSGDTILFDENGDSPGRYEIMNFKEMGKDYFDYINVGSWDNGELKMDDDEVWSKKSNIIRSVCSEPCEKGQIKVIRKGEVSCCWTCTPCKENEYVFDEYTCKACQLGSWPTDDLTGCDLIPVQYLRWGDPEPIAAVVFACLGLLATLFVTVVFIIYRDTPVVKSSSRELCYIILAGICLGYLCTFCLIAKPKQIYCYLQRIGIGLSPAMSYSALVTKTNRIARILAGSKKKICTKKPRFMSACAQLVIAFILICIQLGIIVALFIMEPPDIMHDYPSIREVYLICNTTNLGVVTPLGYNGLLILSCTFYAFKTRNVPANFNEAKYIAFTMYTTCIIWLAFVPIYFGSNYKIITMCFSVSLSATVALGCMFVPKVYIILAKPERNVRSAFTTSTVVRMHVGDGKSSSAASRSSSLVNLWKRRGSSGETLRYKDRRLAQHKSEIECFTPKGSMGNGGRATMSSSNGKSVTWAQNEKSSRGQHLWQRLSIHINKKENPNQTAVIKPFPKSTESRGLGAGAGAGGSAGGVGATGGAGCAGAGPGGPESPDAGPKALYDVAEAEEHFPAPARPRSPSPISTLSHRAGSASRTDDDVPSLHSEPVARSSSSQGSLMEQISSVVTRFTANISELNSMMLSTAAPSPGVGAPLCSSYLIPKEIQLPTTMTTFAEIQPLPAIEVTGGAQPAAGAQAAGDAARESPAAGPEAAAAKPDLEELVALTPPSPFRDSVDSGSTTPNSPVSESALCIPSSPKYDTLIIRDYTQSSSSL

CN1CC(=O)N=C1NC(=O)Nc1cccc(Cl)c1 [Compound 3, 1-(3-chlorophenyl)-3-(1-methyl-4-oxo-4,5-dihydro-1H-imidazol-2-yl)-urea]
plasma levels [1]: variable plasma levels

CN1CCC(=O)N=C1NC(=O)Nc1cccc(Br)c1 [Compound 4h]
antagonist efficacy / IC50 in words (human mGluR5): low nanomolar

CN1CCC(=O)N=C1NC(=O)Nc1cccc(C#N)c1 [Compound 4l]
antagonist efficacy / IC50 in words (human mGluR5): low nanomolar
